Patent US20210325406A1 (priority 2018, published 2021)
Several values for one entry are separate records, joined by “and”; a condition that tells them apart may be missing. Identical values can stand only once. Entries after “also recorded” stand apart in the source; their conditions may differ. Like-named read-outs stand apart in the source and are kept apart here.

Key:
Au(III) embedded MspA-M [1] = biological target: T1, Au(III) embedded MspA-M (Mycolicibacterium smegmatis, UniProt A0QR29, D117N/D118M/D120N/D145R/D161R/E166K); format: binding
Au(III) embedded MspA-M [2] = biological target: T1, Au(III) embedded MspA-M; format: binding; remark: listed apart in the source
[3] = biological target: [AuCl4]− embedded MspA-M nanopore (Mycolicibacterium smegmatis, UniProt A0QR29, D117N/D118M/D120N/D145R/D161R/E166K)
Chain of [AuCl4]− embedded MspA-M nanopore (A0QR29 28-211 D117N/D118M/D120N/D145R/D161R/E166K): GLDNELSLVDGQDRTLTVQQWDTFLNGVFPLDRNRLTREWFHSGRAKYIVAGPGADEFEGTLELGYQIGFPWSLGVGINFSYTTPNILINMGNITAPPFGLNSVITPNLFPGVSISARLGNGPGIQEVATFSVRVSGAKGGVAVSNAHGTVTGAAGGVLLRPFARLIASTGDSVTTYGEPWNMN

T1 sequence (A0QR29 28-211 D117N/D118M/D120N/D145R/D161R/E166K limits assumed): as the sequence (A0QR29 28-211 D117N/D118M/D120N/D145R/D161R/E166K) above

N[C@@H](CS)C(=O)O [L-Cysteine, L-cysteine]
ΔI0−1, cys/I0 (Au(III) embedded MspA-M [1]): 0.104±0.008 and 0.105 ± 0.008 and 0.104 ± 0.007 | ΔI1−1, Cys (Au(III) embedded MspA-M [1]): 13.7 pA and 13.1 pA and 14.2 pA

N[C@@H](CCC(=O)N[C@@H](CS)C(=O)NCC(=O)O)C(=O)O [L-Glutathione, L-glutathione]
ΔI0−1, GSH/I0 (Au(III) embedded MspA-M [1]): 0.167 ± 0.023 and 0.151 ± 0.015 and 0.145 ± 0.015 | ΔI1−1, GSH (Au(III) embedded MspA-M [1]): 23.3 pA and 29.2 pA and 25.1 pA

N[C@@H](CCS)C(=O)O [L-Homocysteine, L-homocysteine]
ΔI0−1, Hcy/I0 (Au(III) embedded MspA-M [1]): 0.13±0.01 and 0.123 ± 0.01 and 0.129 ± 0.01 and 0.131 ± 0.01 | ΔI1−1, Hcy (Au(III) embedded MspA-M [1]): 21.8 pA and 22.7 pA and 23.6 pA

CSCC[C@H](N)C(=O)O [L-Methionine, L-methionine]
absolute blockage amplitude from single L-methionine (Au(III) embedded MspA-M [2]): approximately 37 pA | amplitude, times larger than previously reported amino acid sensing using engineered α-HL (Au(III) embedded MspA-M [2]): about 10 times | dwell time of state 3, three independent measurements (Au(III) embedded MspA-M [2]): 10.05 ± 1.73 ms | ΔI1-3, three independent measurements (Au(III) embedded MspA-M [2]): 48.67±0.91 pA

NC(=O)C[C@H](N)C(=O)O [L-asparagine, reference compound]
events like state 3 / extra sensing signals (Au(III) embedded MspA-M [2]): No extra sensing signals; also recorded: no events at all like state 3

NCC(=O)O [L-glycine, reference compound]
events like state 3 / extra sensing signals (Au(III) embedded MspA-M [2]): No extra sensing signals; also recorded: no events at all like state 3

B1: 78-nt: 78 nucleotide ssDNA composed of a random sequence (Table 6) (nucleic acid)
DNA: AAGCAGACAGGCGGGAAGGTTTTTTTTCTAGAGGGGAATTGTTATCCGCTCACAATTCCCCTATAGTGAGTCGTATTA
modifications: DNA, backbone and methylation of C not given here
ΔI/I0 ([3]; 78-nt ssDNA 4 μM, 10 μM HAuCl4, +100 mV, Blockade level 0): 0.23 ± 0.027 | Mean dwell time ([3]; 78-nt, Blockade level 0): 0.23 ± 0.025 ms | Mean dwell time ([3]; 78-nt, Blockade level 1): 0.97 ± 0.17 ms | ΔI/I0 ([3]; 78-nt, Blockade level 1): 0.37 ± 0.042 | Mean dwell time ([3]; 78-nt, Blockade level 2): 5.52 ± 1.14 ms | ΔI/I0 ([3]; 78-nt, Blockade level 2): 0.59 ± 0.019 | Mean dwell time ([3]; 78-nt, Blockade level 3): 72.81 ± 13.98 ms | ΔI/I0 ([3]; 78-nt, Blockade level 3): 0.88 ± 0.035
